Patent publication US8894989B2, “PARP inhibitor compounds, compositions and methods of use” (Eisai Inc., priority 2007, dated 2014)
“Also recorded” adds a separate entry of the source. Read-outs that look alike come from different tables or passages of the source. One block for each compound: values may come before it.

Columns and labels:
[1] = Bioavailability and brain/plasma levels in rats; settings: 30 mg/kg; for Kp / bioavailability: rat; for Kp: brain; for bioavailability: plasma, po
[2] = Bioavailability and brain/plasma levels in mice; settings: 30 mg/kg; for Kp / bioavailability: mouse; for Kp: brain; for bioavailability: plasma, po
SJGBM2 glioma = settings: for efficacy (survival): compound 13 10 mg/kg po + TMZ
B16 melanoma = assay: Mouse intracranial model of B16 melanoma, combination with TMZ; type: in vivo, mice; settings: for survival time: compound 13 10 mg/kg oral + TMZ vs TMZ as single agent (P<0.0001)
BRCA-1 null cells = assay: Tumor growth in mice bearing BRCA-1 deficient tumors; type: in vivo, nu/nu mice
Description: 1×10^6 BRCA-1 null cells were injected subcutaneously on the right flank of female nu/nu mice (6-7 weeks old; Harlan Sprague Dawley, Indianapolis Ind.). After approximately 10-14 days, the tumors were approximately 100 mm^3. Mice were sorted into groups so that mean tumor size was similar among groups with minimum standard deviations. Dosing started the day after sorting and tumor volume was monitored three times per week. Tumors were measured in two diameters and volume calculated by […]. Mice were removed from the study when tumors reached 1500 mm^3. “Time to Endpoint” or TTE (the number of days it takes for the tumor to reach 1500 mm^3 or greater) is the endpoint of the study. […] The compound was dosed orally, daily for 28 days from start of the study—day 1. A positive control was utilized, using a well known PARP inhibitor shown to be effective as a stand alone agent in the BRCA models (Bryant et al). The positive control agent was dosed at 25 mg/kg IP qdx5 from start of experiment.

[3] = test system: Human HNSCC cell line JHU012; assay: Enhancement of radiation treatment of head and neck squamous cell carcinoma xenograft; type: in vivo, BALB/c nude mice
Description: Human HNSCC cell line JHU012 was used, having been previously genetically characterized and originally derived at the Johns Hopkins University Head and Neck Laboratories from human tumor explants. The cell line was maintained in RPMI 1640 medium with 10% fetal bovine serum and 1% penicillin/streptomycin at 5% CO2 in 37° C. humidified incubators. Experiments were performed on 6-week-old male BALB/c nude mice nu/nu. […] Mice were anesthetized by intraperitoneal injection of […] tribromoethanol. Tumors were established at the right flank by subcutaneous injection of 1×10^7 cells. Fourteen days post cell injection tumors were surgically exposed and measured in 3 dimensions using calipers.

in vivo [4] = settings: rat, po, 30 mg/kg
in vivo [5] = settings: mouse, po, 30 mg/kg
[6] = Plasma and tissue pharmacokinetic properties in mice, rats, and dogs (general statements); type: in vivo; settings: in words
Description: AUC was calculated using the Linear/Log rule.
Selective PARP inhibitors were tested for basic plasma and tissue pharmacokinetic properties in mice, rats, and dogs. After assessment, this family compounds appear to be orally bioavailable in all species and to penetrate brain and tumor tissue.

- Kp [1]: 0.4
- bioavailability [1]: 58%
- Kp [2]: 0.49
- bioavailability [2]: 49%
SMILES: O=c1[nH]nc2c3c(cccc13)N=C(CN1CCN(c3ccccc3)CC1)N2

- bioavailability [1]: 50%
- B/P in rats (ratio of brain to plasma levels) ([1]; rats): 71-117%
- B/P in mice (ratio of brain to plasma levels) ([2]; mice): 30-64%
- bioavailability [2]: 75%
SMILES: O=c1[nH]nc2c3c(cccc13)N=C(CN1CCC(c3ccccc3)CC1)N2

SMILES: O=c1[nH]nc2c3c(cccc13)N=C(CN1CC=C(c3ccccc3)CC1)N2 [Compound 13, 8-(4-phenyl-3,6-dihydro-2H-pyridin-1-ylmethyl)-2,9-dihydro-1,2,7,9-tetraaza-phenalen-3-one]
- MTS (median survival time) (SJGBM2 glioma; compound 13 10 mg/kg po 15 min pre-TMZ, combination with TMZ (P=0.002)): 25 days
- efficacy (survival) (SJGBM2 glioma): enhanced survival
- efficacy (survival) (SJGBM2 glioma; listed as compound 13): efficacious
- survival time (B16 melanoma): enhance survival
- survival time (B16 melanoma; listed as compound 13): significantly increased the survival time

SMILES: O=c1[nH]nc2c3c(cccc13)N=C(CN1Cc3ccccc3C1)N2 [Compound 37, 8-(1,3-dihydro-isoindol-2-ylmethyl)-2,9-dihydro-1,2,7,9-tetraaza-phenalen-3-one]
- animal survival (SJGBM2 glioma; 10 mg/kg Compound 37 + TMZ five days followed by Compound 37 100 mg/kg for 14 days vs 10 mg/kg Compound 37 + TMZ five days): significantly increased animal survival
- tumor growth (BRCA-1 null cells; 100 mg/kg Compound 37 orally, daily for 28 days, vs vehicle controls): effective in significantly retarding tumor growth; also recorded: inhibition of growth
- time until tumors start to grow after dosing stopped at day 28 (BRCA-1 null cells; Compound 37 100 mg/kg po daily for 28 days): 10 to 14 days
- tumor growth delay compared to positive control (BRCA-1 null cells; Compound 37 100 mg/kg po vs positive control PARP inhibitor 25 mg/kg IP qdx5 (p<0.05)): delayed tumor growth compared to the positive control
- tumor growth inhibition ([3]; 100 mg/kg Compound 37 PO qdx17 alone compared to vehicle controls): no significant effect on tumor growth inhibition
- tumor growth inhibition ([3]; Compound 37 30 mg/kg PO + radiation compared to radiation alone): no significant effect on tumor growth inhibition
- inhibition of tumor growth ([3]; Compound 37 oral (100 mg/kg) + radiation vs control): significant inhibition of tumor growth
- tumor volume at end of experiment ([3]; Group 5: 100 mg/kg Compound 37 PO + Radiation (2 gy/day for 2 days), day 31, control 585.9 mm^3, p<0.01): 209.04 mm^3
- mean survival time (B16 melanoma; Compound 37 12.5 mg/kg oral + TMZ vs TMZ as single agent): significantly higher; also recorded: enhance survival

SMILES: Cn1nnc2c(C(N)=O)ncn2c1=O [TMZ, temozolomide, reference compound]
- MTS (median survival time) (SJGBM2 glioma; TMZ alone): 22.5 days
- response of SJGBM2 to TMZ (SJGBM2 glioma; TMZ as single agent): ineffective
- survival times (B16 melanoma; TMZ treated vs control group): No significant differences in survival times

- Kp [1]: < 0.05
- bioavailability [1]: 77%
- Kp [2]: < 0.05
- bioavailability [2]: 77%
SMILES: O=c1[nH]nc2c3c(cccc13)N=C(CN1CCOCC1)N2 [drawing 95]

SMILES: O=c1[nH]nc2c3c(cccc13)N=C(CN1CC=C(c3ccccc3)CC1)N2 [drawing 97]
- Kp [1]: 0.42
- bioavailability (in vivo [4]): 51%
- Kp [2]: 0.46
- bioavailability (in vivo [5]): 61%

SMILES: O=c1[nH]nc2c3c(cccc13)N=C(CN1Cc3ccccc3C1)N2 [drawing 99]
- Kp [1]: 0.36
- bioavailability [1]: 45%
- Kp [2]: 0.26
- bioavailability [2]: 81%

- oral bioavailability [6]: good bioavailability
- ratio of brain to plasma levels [6]: very low
SMILES: O=c1[nH]nc2c3c(cccc13)N=C(CN1CCOCC1)N2 [prior art compound]
